Data set [1] in a line: Parallel artificial membrane permeability assay for the blood–brain barrier (PAMPA-BBB). In kind it is in vitro ADME. As to conditions: for Papp at 4 h, 1 mM: single compounds at concentration of 10 mM (stock), read-out: BBB Permeability log Pe (converted); for Cross BBB Potential: single compounds at 10 mM, classification based on Könczöl et al. The protocol: The PAMPA-BBB experiment was carried out according to the study by Könczöl et al.. A slightly modified version of the PAMPA-BBB was used to assess effective permeability (Pe, cm/s) of compounds of I. rotunda. Briefly, 20 μL of stock solution of I. rotunda extract (10 mg/mL in MeOH) or test compound (10 mM in MeOH) was mixed with 180 μL of phosphate buffered saline (PBS, pH 7.4, 10 mM) to obtain the starting donor solution. Subsequently, the filter membrane of the donor (top) plate (96-well polycarbonate-based filter plate, Multiscreen-IP, MAIPTR10, pore size 0.45 μm, Milipore) was coated with 5 μL of porcine polar brain lipid extract (PBLE) solution (16.0 mg PBLE + 8.0 mg cholesterol dissolved in 600.0 μL n-dodecane). Then, 150.0 μL of the filtrate was placed on the membrane. The bottom (acceptor) plate (96-well microtiter plate, Multiscreen®, MATRNPS50, Milipore) was filled with 300.0 μL buffer solution (PBS, pH 7.4, 10 mM). The donor plate was carefully located on the acceptor plate to form a “sandwich”. It was incubated at 37 °C for 4 h without direct right exposure. After incubation, PAMPA plates were separated. Concentrations of identified compounds of I. rotunda in the starting donor solution and in acceptor and donor wells were determined in triplicate based on chromatographic peak areas derived from the same established analytical methods. […] Pe=−ln1−CA(t)/Cequilibrium /A×1/VD1/VA×t where Pe is permeability in cm s^−1. A = effective filter area = f × 0.3 cm^2; VD = donor well volume = 150 μL; VA = acceptor well volume = 300 μL; t = incubation time (s) = 14,400; CA(t) = compound concentration in the acceptor well at time t; and CD(t) = compound concentration in the donor well at time t. Cequilibrium is calculated as follows: Cequilibrium=CD(t)×VD+CA(t)×VA/VD+VA
(In general: In PAMPA a lipid-coated filter parts donor from acceptor wells.)

Data set [2] is described as follows: HPLC-DPPH screening: peak area reduction in I. rotunda twig extract. The data set is classed as biochemical. The settings on record: between DPPH treated and untreated samples in the I. rotunda extract, untreated = 100%. As for the experimental part: (§1) An amount of 100 μL of the I. rotunda extract (1.3 mg/mL) dissolved in methanol and 100 μL of the DPPH solution (1.2 mg/mL in methanol) were mixed and incubated for 30 min at 37 °C, protected from light. After that, the mixture was filtered through a 0.22 μm filter for HPLC analysis. The control sample was prepared by mixing 100 μL methanol with 100 μL of the extract. Both mixtures were analyzed using the same established analytical methods. The outflow was monitored at 254 and 326 nm wavelength. […] The ELISA assay was performed by following procedure. A 100 μL of DPPH solution (0.2 mM) was added to 100 μL of the sample on a 96-well plate, mixed for 5 s, and reacted for 30 min under shade. The absorbance was measured at 517 nm using a microplate spectrophotometer (Epoch, Biotek Instruments, Inc., Winooski, VT, USA). […] Ascorbic acid (100 μg/mL) (Sigma–Aldrich, Co., St. Louis, MO, USA) was used as the positive control.
A general note: Loss of DPPH colour is used to gauge radical scavenging.

The nature of data set [3]: DPPH method on ELISA (96-well microplate) for isolated compounds. The data set is classed as biochemical. The settings on record: compounds 2.5 to 40 μM, 30 min, 517 nm; read-out: EC50 Values (μM), DPPH radical. As for the experimental part:
The radical scavenging effect of 2,2-diphenyl-1-picrylhydrazyl (DPPH; Thermo Fisher Scientific, Ward Hill, MA, USA) was measured using our previous method. Briefly, 0.1 mL of each sample solution (dissolved in EtOH) was mixed with 0.1 mL of 0.2 mM DPPH and allowed to stand at RT for 30 min under shade. The absorbance at 517 nm was measured using a microplate spectrophotometer (Epoch, Biotek Instruments, Inc., Winooski, VT, USA). Ascorbic acid (100 μg/mL) (Sigma–Aldrich, Co., St. Louis, MO, USA) was used as a positive control. The percentage of DPPH reduction between the treated sample and negative control well was calculated with the following formula: %EC = (A control − A sample) * 100/(A control), where A sample was the absorbance of the sample and A control was the absorbance of untreated sample. Results are indicated as EC50, which correspond to the sample concentration (μg/mL) required to inhibition by 50% of the initial DPPH radical scavenging activity under the given experimental conditions.
as §1

Details of data set [4]: method as in PMID 23565574. As to conditions: cited from earlier work.
The mark [5] stands for this setting: I. rotunda extract test, t = 14,400 s.

The values that follow come from publication PMC9598469, “Analysis of Antioxidant Constituents from Ilex rotunda and Evaluation of Their Blood–Brain Barrier Permeability” (Antioxidants, 2022).

Like-named read-outs stand apart in the source and are kept apart here.

Consider `O=C(O)/C=C/c1ccc(O)c(O)c1` [caffeic acid, reference compound], for which the Papp at 4 h, 1 mM in data set [1] (PAMPA, pH 7.4, 37 °C, 4 h) was 0.000832 ×10⁻⁶ cm/s. Also, the “Cross BBB Potential” value in data set [1] was “- (not detected in acceptor or log Pe < −6.0)”.

Take `O=c1ccc2ccccc2o1` [coumarin, reference compound]: the Papp at 4 h, 1 mM in data set [1] (PAMPA, pH 7.4, 37 °C, 4 h) is 28.8 ×10⁻⁶ cm/s. Besides, the “Cross BBB Potential” value in data set [1] is given as “++ (log Pe > −5.0)”.

Regarding `CC(=CCOC1OC(CO)C(O)C(O)C1O)COC(=O)C=Cc1ccc(O)c(O)c1` (stereo not drawn) [Compound 4, Rotundarpenoside B], the “Reduction of the Peak Area (%)” value in data set [2] was 18.99 ± 0.90%. For the same molecule, the “Cross BBB Potential” value in data set [1] is given as “- (not detected in acceptor or log Pe < −6.0)”.

For the molecule `O=C(/C=C/c1ccc(O)c(O)c1)O[C@@H]1C[C@](O)(C(=O)O)C[C@@H](OC(=O)/C=C/c2ccc(O)c(O)c2)[C@H]1OC(=O)/C=C/c1ccc(O)c(O)c1` [Compound 8, 3,4,5-Tricaffeoylquinic acid], the “Reduction of the Peak Area (%)” value is 67.25% in data set [2] and 67.25 ± 1.00% in data set [2] (listed as 3,4,5-tricaffeoylquinic acid (8)). Moreover, the EC50 (in general, the concentration giving half of the maximal effect) in data set [3] amounted to 10.9 ± 0.14 µM. In addition, the “Cross BBB Potential” value in data set [1] is reported as “- (not detected in acceptor or log Pe < −6.0)”.

Take `O=C1O[C@H]([C@@H](O)CO)C(O)=C1O` [Ascorbic acid, reference compound]: the EC50 in data set [3] turned out to be 22.6 ± 0.77 µM.

As to `COc1cc(/C=C/CO)cc(OC)c1O[C@@H]1O[C@H](CO)[C@@H](O)[C@H](O)[C@H]1O` [Compound 1, Syringin], in data set [2], the “Reduction of the Peak Area (%)” value was 6.98 ± 0.44%. Further, the “Cross BBB Potential” value in data set [1] is listed as “- (not detected in acceptor or log Pe < −6.0)”.

As to `O=C(C=Cc1ccc(O)c(O)c1)OC1CC(O)(C(=O)O)CC(O)C1OC(=O)C=Cc1ccc(O)c(O)c1` (stereo not drawn) [Compound 5, 3,4-Dicaffeoylquinic acid], the “Reduction of the Peak Area (%)” value in data set [2] is recorded as 45.24 ± 0.67%. The “Cross BBB Potential” value in data set [1] is “- (not detected in acceptor or log Pe < −6.0)”.

Take `O=C(/C=C/c1ccc(O)c(O)c1)O[C@@H]1C[C@](O)(C(=O)O)C[C@@H](O)[C@H]1O` [Compound 2, Chlorogenic acid]: the “Cross BBB Potential” value in data set [1] was “- (not detected in acceptor or log Pe < −6.0)”. In data set [4], the “BBB permeability (in words)” value is reported as “poor permeability”.

Turning to `O=C(/C=C/c1ccc(O)c(O)c1)O[C@@H]1[C@H](O)C[C@@](O)(C(=O)O)C[C@H]1OC(=O)/C=C/c1ccc(O)c(O)c1` [Compound 7, 4,5-Dicaffeoylquinic acid], in data set [2], the “Reduction of the Peak Area (%)” value is given as 83.67%. Moreover, the “Reduction of the Peak Area (%)” value in data set [2] (listed as 4,5-dicaffeoylquinic acid (7)) is 83.67 ± 0.19%. Besides, in data set [3], the EC50 amounted to 13.8 ± 0.24 µM. For the same molecule, in data set [1] (setting [5]), the “Concentration of acceptor solution CA(t)” value was 6.62 µg/mL and the “Concentration of donor solution CD(t)” value stood at 287.86 µg/mL. Moreover, the “BBB permeability (in words)” value in data set [1] (PAMPA-BBB, extract and 10 mM tests) is recorded as “moderate BBB permeability”. Further, the Papp at 4 h, 1 mg/mL extract in data set [1] (PAMPA, compound within I. rotunda extract (10 mg/mL stock), pH 7.4, 37 °C, 4 h, read-out: BBB permeability log Pe (converted)) is 1.58 ×10⁻⁶ cm/s. Moreover, the Papp at 4 h, 1 mM in data set [1] (PAMPA, pH 7.4, 37 °C, 4 h) is 1.41 ×10⁻⁶ cm/s. In addition, the “Cross BBB Potential” value in data set [1] is “+ (log Pe > −6.0)”.

For `O=C(/C=C/c1ccc(O)c(O)c1)O[C@@H]1C[C@](O)(C(=O)O)C[C@@H](OC(=O)/C=C/c2ccc(O)c(O)c2)[C@H]1O` [Compound 6, 3,5-Dicaffeoylquinic acid], the “Reduction of the Peak Area (%)” value is recorded as 58.88% in data set [2] and 58.88 ± 0.44% in data set [2] (listed as 3,5-dicaffeoylquinic acid (6)). Also, the EC50 in data set [3] was 10.88 ± 0.04 µM. The “Cross BBB Potential” value in data set [1] is reported as “- (not detected in acceptor or log Pe < −6.0)”.

As to `C[C@@H]1O[C@@H](OC[C@H]2O[C@@H](Oc3c(-c4ccc(O)c(O)c4)oc4cc(O)cc(O)c4c3=O)[C@H](O)[C@@H](O)[C@@H]2O)[C@H](O)[C@H](O)[C@H]1O` [Compound 3, Rutin], the “Reduction of the Peak Area (%)” value in data set [2] was 21.45 ± 0.90%. Moreover, the “Cross BBB Potential” value in data set [1] is listed as “- (not detected in acceptor or log Pe < −6.0)”. The “BBB permeability (in words)” value in data set [4] is “poor permeability”.
